Drawing on patent US20250186456A1, “PYRIMIDINE-FUSED CYCLIC COMPOUND AND PREPARATION METHOD AND USE THEREOF” (Genfleet Therapeutics (Shanghai) Inc., priority 2021, published 2025), this text covers IC50 for eleven compounds.

Read-outs that look alike come from different tables or passages of the source.

Assay type in all cases: cell-based, human
The test system of one assay is AGS cells (KRAS G12D). Description: Cell proliferation inhibition assay, 3D, CellTiter-Glo 3D, AGS. Conditions: AGS 3D sphere model, 5 days incubation. The text has this:
(§1) AsPC-1 was purchased from ATCC; catalog No: CRL-1682; AGS was purchased from ATCC; catalog No: CRL-1739; RPMI1640 was purchased from Gibco; catalog No: 11875-093 2235123; F12K was purchased from Gibco; catalog No: 21127-022; FBS was purchased from Gibco; catalog No: 10099-141C; trypsin (containing EDTA) was purchased from Gibco; catalog No: 25200-072; CellTiter Glo-3D was purchased from Progema; catalog No: G9683; 384-well sphere plates were purchased from Corning; catalog No: 3830; white opaque 384-well plates were purchased from Corning; catalog No: 3570; cell counters were purchased from CHEMOMETEC; model: NC-200; microplate reader was purchased from PerkinElmer; model: Envison;
(§2) AsPC-1 is an endogenous human pancreatic cancer cell containing KRAS^G12D mutation, cultured in RPMI-1640 medium containing 10% FBS; AGS is a human gastric cancer cell line containing KRAS^G12D, cultured in F-12K medium containing 10% FBS. Cells in the logarithmic growth phase were taken, digested with trypsin (containing EDTA), collected, and counted. 800 AsPC-1 cells/well or 400 AGS cells/well, respectively, were seeded in a 384-well sphere plate and cultured overnight at 5% CO2 to establish a 3D cell model. 1000X stock solutions of compounds at a 3.16-fold concentration gradient of were prepared using DMSO, diluted 100-fold into a 10X compound stock solution using the medium described above. The 10X compound stock solution was added to each cell on 2nd day after cell seeding at a final concentration of 1X and a DMSO content of 0.1%. DMSO was used as a control in the experiment, and the medium was used as blank. After the addition of the compounds, the cells were incubated for 5 days. 30 μl of CellTiter-Glo work solution was added to each well, mixed well, and incubated for 30 minutes. After standing at room temperature for 30 minutes, 40 μl of the mixed solution was transferred to an opaque 384-well plate with a white clear bottom. Luminescence chemiluminescence value was read by a microplate reader, and the cell proliferation inhibition rate (IR (%)=(RLU control-RLU compound)/(RLU control-RLU blank)×100%) was calculated. The gradiently diluted concentration of the compounds and corresponding cell proliferation inhibition rate were fitted using XLFit four-parameters method, and the IC50 value was calculated. […] The results of some exemplary compounds are shown in Table 2 (“−” represents untested).
A general note: ATP-based viability assays read luminescence as a measure of living cells.

In assay [1] the test system is AsPC-1 cells (KRAS G12D mutation). Description: Cell proliferation inhibition assay, 3D, CellTiter-Glo 3D, AsPC-1. Conditions: AsPC-1 3D sphere model, 5 days incubation.
From the text: as §1, §2

Assay [2] relates to p-ERK in AGS cells (KRAS G12D mutation). Description: Cell p-ERK assay (HTRF, Advance ERK phospho-T202/Y204 kit). Conditions: AGS cells, 3 hours incubation with compound, HTRF, read-out: AGS p-ERK IC50. As for the experimental part: AGS was purchased from ATCC; catalog No: CRL-1739; F12K was purchased from Gibco; catalog No: 21127-022; FBS was purchased from Gibco; catalog No: 10099-141C; trypsin (containing EDTA) was purchased from Gibco, catalog No: 25200-072; DMSO was purchased from VWRAMRESCO; catalog No: 0231-500 ML; 96-well cell culture plates were purchased from Corning; catalog No: 3599; white opaque 96-well plates were purchased from Cisbio; catalog No: 66PL96025; Advance ERK phospho-T202/Y204 kit was purchased from Cisbio; catalog No: 64AERPEH; cell counters were purchased from CHEMOMETEC; model No: NC-200; microplate reader was purchased from PerkinElmer; model No: Envison.
AGS is an endogenous human gastric adenocarcinoma cell line containing the KRAS^G12D mutation, cultured in F12K+10% FBS medium. On the first day of the experiment, cells in the logarithmic growth phase were taken, digested with trypsin (containing EDTA), collected, and counted. Approximately 20000 cells/well were seeded in a 96-well cell culture plate and cultured overnight in an incubator with 5% CO2. 1000X stock solutions of compounds at a 3.16-fold concentration gradient were prepared using DMSO, and diluted 200-fold into a 5X compound stock solution using the medium described above. The 5X compound stock solution was added to each cell culturing well the day after cell seeding at a final concentration of 1X and a DMSO content of 0.1%. DMSO was used as a control in the experiment. After the compound was added and the incubation was kept for 3 hours, the medium in the culture wells was removed. 50 μl of Cell lysis solution (from Advance ERK phospho-T202/Y204 kit, the same below) was added to each well, mixed well, and incubated for 30 minutes and then 16 μl of the mixed solution was transferred to a white opaque 96-well plate, another 16 μl of cell lysis solution was added to a well as a blank well. After transferring, 4 μl of p-ERK HTRF antibody mixture (from Advance ERK phospho-T202/Y204 kit) was added to each well. After incubation for 4 hours, HTRF fluorescence value (RLU) was read by a microplate reader, and p-ERK level inhibition rate (IR (%)=(RLU control-RLU compound)/(RLU control-RLU blank)×100%) of the compounds was calculated. The concentration of the compounds and corresponding cell p-ERK level inhibition rate were fitted using Prism 8 four-parameters method, and the IC50 value was calculated.

With `C#Cc1c(F)ccc2cccc(-c3nc4c5c(nc(OCC6(CN7CCOCC7)CC6)nc5c3F)N3C[C@H]5CC[C@H](N5)[C@H]3[C@H](C)O4)c12` [Example Z693, (58,5aS,6S,9R)-2-(8-ethynyl-7-fluoronaphthalen-1-yl)-1-fluoro-5-methyl-12-((1-(morpholinomethyl)cyclopropyl)methoxy)-5a,6,7,8,9,10-hexahydro-5H-4-oxa-3,10a, 11, 13,14-pentaaza-6,9-methanonaphtho[1,8-ab]heptalene], the IC50 was determined as 27.3 nM with AGS cells (KRAS G12D) (Homo sapiens, 120 h); 31.1 nM in assay [1] (Homo sapiens, ASPC1, 120 h); 9.23 nM in assay [2] (Homo sapiens).
The matching figures for `C#Cc1c(F)ccc2cccc(-c3nc4c5c(nc(OCC67CCCN6CC(=C(F)F)C7)nc5c3F)N3C[C@H]5CC[C@H](N5)[C@H]3[C@H](C)O4)c12` (stereo partly drawn) [Example Z608, (5S,5aS,6S,9R)-12-((2-(difluoromethylene)tetrahydro-1H-pyrrolizin-7a (5H)-yl)methoxy)-2-(8-ethynyl-7-fluoronaphthalen-1-yl)-1-fluoro-5-methyl-5a,6,7,8,9,10-hexahydro-5H-4-oxa-3,10a, 11,13,14-pentaaza-6,9-methanonaphtho[1,8-ab]heptalene]: 82.3 nM, 146 nM and 28.4 nM.
Take `C#Cc1c(Cl)ccc2cccc(-c3nc4c5c(nc(OCC67CCCN6CC(=C)C7)nc5c3F)N3C[C@H]5CC[C@H](N5)[C@H]3[C@H](C)O4)c12` (stereo partly drawn) [Example Z593, (5S,5aS,6S,9R)-2-(7-chloro-8-ethynylnaphthalen-1-yl)-1-fluoro-5-methyl-12-((2-methylenetetrahydro-1H-pyrrolizin-7a (5H)-yl)methoxy)-5a,6,7,8,9,10-hexahydro-5H-4-oxa-3,10a, 11,13, 14-pentaaza-6,9-methanonaphtho[1,8-ab]heptalene]: the IC50 in the assay on AGS cells (KRAS G12D) (Homo sapiens, 120 h) was found to be 35.4 nM; in assay [1] (Homo sapiens, ASPC1, 120 h), 78.8 nM; in assay [2] (Homo sapiens), 29 nM.
Take `C#Cc1c(F)ccc2cccc(-c3nc4c5c(nc(OC[C@@]67CCCN6C[C@@H]6C[C@@H]67)nc5c3F)N3C[C@H]5CC[C@H](N5)[C@H]3[C@H](C)O4)c12` (single isomer, unassigned) [Example Z626-2]: the IC50 worked out at 28.2 nM with AGS cells (KRAS G12D) (Homo sapiens, 120 h); 56.6 nM in assay [1] (Homo sapiens, ASPC1, 120 h); 20.6 nM in assay [2] (Homo sapiens).
Turning to `C#Cc1cccc2cc(N)cc(-c3nc4c5c(nc(OCC67C[C@@H](F)CN6CCC7=C)nc5c3F)N3C[C@H]5CC[C@H](N5)[C@H]3[C@H](C)O4)c12` (stereo partly drawn) [Example Z730, 5-ethynyl-4-((5S,5aS,6S,9R)-1-fluoro-12-(((6R)-6-fluoro-1-methylenetetrahydro-1H-pyrrolizin-7a (5H)-yl)methoxy)-S-methyl-5a,6,7,8,9,10-hexahydro-5H-4-oxa-3,10a, 11, 13, 14-pentaaza-6,9-methanonaphtho[1,8-ab]heptalene-2-yl) naphthalen-2-amine], the IC50 in the assay with AGS cells (KRAS G12D) turned out to be 1.66 nM; in assay [1], 3.61 nM; in assay [2], 0.54 nM.
With `Cc1cc(-c2nc3c4c(nc(OCC5(CN6CCOCC6)CC5)nc4c2F)N2C[C@H]4CC[C@H](N4)[C@H]2[C@H](C)O3)c(C)c(N)c1C1CC1` [Example Z716, 2-cyclopropyl-5-((5S,5aS,6S,9R)-1-fluoro-5-methyl-12-((1-(morpholinomethyl)cyclopropyl)methoxy)-5a,6,7,8,9,10-hexahydro-5H-4-oxa-3,10a, 11,13,14-pentaaza-6,9-methanonaphtho[1,8-ab]heptalen-2-yl)-3,6-dimethylaniline], the IC50 in the assay on AGS cells (KRAS G12D) (Homo sapiens, 120 h) came to 48.6 nM; in assay [1] (Homo sapiens, ASPC1, 120 h), 89.2 nM; in assay [2] (Homo sapiens) it was 81.8 nM.
Turning to `C=C1CN2CCCC2(COc2nc3c4c(nc(-c5cccc6cccc(Cl)c56)c(F)c4n2)O[C@@H](CC)[C@@H]2[C@@H]4CC[C@H](CN32)N4)C1` (stereo partly drawn) [Example Z596, (5S,5aS,6S,9R)-2-(8-chloronaphthalen-1-yl)-5-ethyl-1-fluoro-12-((2-methylenetetrahydro-1H-pyrrolizin-7a (5H)-yl)methoxy)-5a,6,7,8,9,10-hexahydro-5H-4-oxa-3,10a,11,13,14-pentaaza-6,9-methanonaphtho[1,8-ab]heptalene], the IC50 in the assay with AGS cells (KRAS G12D) (Homo sapiens, 120 h) is 268 nM; in assay [1] (Homo sapiens, ASPC1, 120 h), 411 nM.
On to `C#Cc1c(F)ccc2cccc(-c3nc4c5c(nc(OCC67CC(=C)CN6CC[C@H]7OC)nc5c3F)N3C[C@H]5CC[C@H](N5)[C@H]3[C@H](C)O4)c12` (stereo partly drawn) [Example Z704, (58,5aS,6S,9R)-2-(8-ethynyl-7-fluoronaphthalen-1-yl)-1-fluoro-12-(((1R)-1-methoxy-6-methylenetetrahydro-1H-pyrrolizin-7a (5H)-yl)methoxy)-5-methyl-5a,6,7,8,9,10-hexahydro-5H-4-oxa-3,10a, 11, 13,14-pentaaza-6,9-methanonaphtho[1,8-ab]heptalene], for which the IC50 in assay [1] (Homo sapiens, ASPC1, 120 h) was 688 nM; in assay [2] (Homo sapiens) it was 542 nM.
Consider `C=C1CN2C[C@H](F)CC2(COc2nc3c4c(nc(-c5cc(N)nc(C)c5C5CC5)c(F)c4n2)O[C@@H](C)[C@@H]2[C@@H]4CC[C@H](CN32)N4)C1` (stereo partly drawn) [Example Z680, 5-Cyclopropyl-4-((58,5aS,6S,9R)-1-Fluoro-12-(((2R)-2-Fluoro-6-Methylenetetrahydro-1H-Pyrrolizin-7a (5H)-Yl)Methoxy)-5-Methyl-5a,6,7,8,9,10-Hexahydro-5H-4-Oxa-3,10a,11,13,14-Pentaaza-6,9-Methanonaphtho[1,8-Ab]Heptalen-2-Yl)-6-Methylpyridin-2-Amine], for which the IC50 turned out to be 386 nM with AGS cells (KRAS G12D) (Homo sapiens, 120 h) and 143 nM in assay [2] (Homo sapiens).
`C#Cc1c(F)ccc2cccc(-c3nc4c5c(nc(OCC67CC(=C)CN6C[C@@H](F)C7)nc5c3F)N3C[C@H]5CC[C@H](N5)[C@H]3[C@H](C)O4)c12` (stereo partly drawn) [Example Z634, (5S,5aS,6S,9R)-2-(8-ethynyl-7-fluoronaphthalen-1-yl)-1-fluoro-12-(((2S)-2-fluoro-6-methylenetetrahydro-1H-pyrrolizin-7a (5H)-yl)methoxy)-5-methyl-5a,6,7,8,9,10-hexahydro-5H-4-oxa-3,10a,11,13,14-pentaaza-6,9-methanonaphtho[1,8-ab]heptalene]: inhibition in assay [1] (Homo sapiens, ASPC1, 120 h) was half-maximal at 883 nM (IC50).
For the compound `C#Cc1c(F)ccc2cccc(-c3nc4c5c(nc(OCC67C[C@H](OC)CN6CCC7=C)nc5c3F)N3C[C@H]5CC[C@H](N5)[C@H]3[C@H](C)O4)c12` (stereo partly drawn) [Example Z694, (5S,5aS,6S,9R)-2-(8-ethynyl-7-fluoronaphthalen-1-yl)-1-fluoro-12-(((6S)-6-methoxy-1-methylenetetrahydro-1H-pyrrolizin-7a (5H)-yl)methoxy)-5-methyl-5a,6,7,8,9,10-hexahydro-5H-4-oxa-3,10a, 11,13,14-pentaaza-6,9-methanonaphtho[1,8-ab]heptalene], the IC50 with AGS cells (KRAS G12D) (Homo sapiens, 120 h) is 397 nM; in assay [1] (Homo sapiens, ASPC1, 120 h), 405 nM.

For orientation: IC50 means the concentration at which inhibition is half-maximal.
